# In US12319689B2, “Methyl- and trifluoromethyl-containing disubstituted sulfonamide selective BCL-2 inhibitor” (CHIA TAI TIANQING PHARMACEUTICAL GROUP CO., LTD., priority 2019, dated 2025):
# What was measured:
# RS4;11 cells = experiment: Inhibition of proliferation of RS4;11 human acute lymphocytic leukemia cells (CCK-8); format: cell-based; settings: 72 h compound exposure, CCK-8, 5% serum
# Experimental: RS4;11 cells (from ATCC) in logarithmic growth phase and good cell condition were added to a centrifuge tube and centrifuged at 1500 rpm for 3 min in a low speed centrifuge. The supernatant was discarded, and 5 mL of complete medium (RPMI basic medium+10% FBS) was added using a pipette for cell resuspension. The cells were counted using a cell counter, diluted with complete medium to a cell density of 2×10^5 cells/mL, and an equivalent amount of RPMI basic medium was added to adjust the serum concentration to 5% and the cell density to 1×10^5 cells/mL for plate seeding. The cells were seeded on a 96-well plate at 100 μL/well using a pipettor, and incubated in an incubator at 37° C., 5% CO2 with saturated humidity. After 24 h of incubation, compounds were loaded using a nanoliter pipettor, 2 duplicate wells were set for each concentration, and cells without compound were used as negative controls. […] Inhibition rate (%)=(mean value of negative control group−mean value of experimental group)/(mean value of negative control group−mean value of blank group)×100%. A dose-response curve was fitted by four-parameter analysis, with the logarithm of compound concentration serving as abscissa and inhibition rate serving as ordinate, so that IC50 was calculated (Table 1).
# BCL-2/BAK = target: T1, BCL-2/BAK (Homo sapiens, UniProt P10415); experiment: Inhibitory activity for BCL-2/BAK binding (Cisbio BCL-2/BAK (BH3) binding assay kit)
# T1 construct: purchased Cisbio 63ADK000CB01PEG
# Experimental: 500 nM Tag1-BCL-2 protein stock solution and 20 μM Tag2-BAK protein stock solution were diluted to 5 nM and 120 nM respectively with dilution buffer in kit (name: BCL-2/BAK (BH3) BINDING ASSAY KITS, cat. No.: 63ADK000CB01PEG, from Cisbio). 5 μL of Tag1-BCL-2 protein diluent was added to each well, then test compounds dissolved with DMSO were added to the wells with a nanoliter pipettor, allowing the final compound concentrations to be 200 nM to 0.0488 nM (4-fold gradient for 7 concentrations in total). Blank control wells (without enzyme) and negative control wells (with enzyme, plus vehicle DMSO) were set, and 2 replicate wells were set. Finally, 5 μL of Tag2-BAK protein diluent was added to each well, and the mixture was mixed well by centrifugation and incubated at 25° C. for 15 min. 100× anti-Tag1-Eu^3+ and 100× anti-Tag2-XL665 were both diluted to 1× working concentration with the detection buffer in the kit. Anti-Tag1-Eu^3+ and anti-Tag2-XL665 were mixed well in a 1:1 ratio, and the mixture was added to wells at 5 μL/well, and incubated at 25° C. for 2 h or more. The plate was read using a PE Envision multi-functional microplate reader ([…], emission: 665 nm) and IC50 (shown in Table 2) was calculated by four-parameter fitting.
# T1 sequence (P10415 whole entry): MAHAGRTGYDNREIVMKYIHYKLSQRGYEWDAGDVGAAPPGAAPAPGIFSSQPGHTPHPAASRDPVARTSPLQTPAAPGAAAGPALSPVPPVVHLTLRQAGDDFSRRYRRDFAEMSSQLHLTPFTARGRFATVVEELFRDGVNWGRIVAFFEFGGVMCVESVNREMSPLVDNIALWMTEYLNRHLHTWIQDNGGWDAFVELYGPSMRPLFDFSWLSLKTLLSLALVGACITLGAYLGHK
SMILES,IC50 (RS4;11 cells) [nM],IC50 (BCL-2/BAK) [nM]
"Cc1cc(C(F)(F)F)ccc1C1=C(CN2CCN(c3ccc(C(=O)NS(=O)(=O)c4ccc(NC[C@@H]5CN(S(C)(=O)=O)CCO5)c([N+](=O)[O-])c4)c(Oc4cnc5[nH]ccc5c4)c3)CC2)CCC(C)(C)C1 [Compound 23-1, (R)-4-(4-{[2-(2-methyl-4-trifluoromethylphenyl)-4,4-dimethylcyclohex-1-enyl]methyl}-piperazin-1-yl)-N-({3-nitro-4-[((4-(methylsulfonyl)morpholin-2-yl)methyl)amino]phenyl}sulfonyl)-2-(1H-pyrrolo[2,3-b]pyridin-5-yloxy)-benzamide]",2.5,1.1
"Cc1cc(C(F)(F)F)ccc1C1=C(CN2CCN(c3ccc(C(=O)NS(=O)(=O)c4ccc(NC[C@H]5CN(C(=O)C(C)C)CCO5)c([N+](=O)[O-])c4)c(Oc4cnc5[nH]ccc5c4)c3)CC2)CCC(C)(C)C1 [Compound 20-1, (S)-4-(4-{[2-(2-methyl-4-trifluoromethylphenyl)-4,4-dimethylcyclohex-1-enyl]methyl}-piperazin-1-yl)-N-({3-nitro-4-[((4-isobutyrylmorpholin-2-yl)methyl)amino]phenyl}sulfonyl)-2-(1H-pyrrolo[2,3-b]pyridin-5-yloxy)-benzamide]",,2.06
COCC(=O)N1CCO[C@@H](CNc2ccc(S(=O)(=O)NC(=O)c3ccc(N4CCN(CC5=C(c6ccc(C(F)(F)F)cc6C)CC(C)(C)CC5)CC4)cc3Oc3cnc4[nH]ccc4c3)cc2[N+](=O)[O-])C1 [Compound 4-1],5.4,0.7
Cc1cc(C(F)(F)F)ccc1C1=C(CN2CCN(c3ccc(C(=O)NS(=O)(=O)c4ccc(NC[C@@H]5COCCO5)c([N+](=O)[O-])c4)c(Oc4cnc5[nH]ccc5c4)c3)CC2)CCC(C)(C)C1 [Compound 2-1],4.2,
"CC(=O)N1CCO[C@@H](CNc2ccc(S(=O)(=O)NC(=O)c3ccc(N4CCN(CC5=C(c6ccc(C(F)(F)F)cc6C)CC(C)(C)CC5)CC4)cc3Oc3cnc4[nH]ccc4c3)cc2[N+](=O)[O-])C1 [Compound 18-1, (S)-4-(4-{[2-(2-methyl-4-trifluoromethylphenyl)-4,4-dimethylcyclohex-1-enyl]methyl}-piperazin-1-yl)-N-({3-nitro-4-[((4-acetylmorpholin-2-yl)methyl)amino]phenyl}sulfonyl)-2-(1H-pyrrolo[2,3-b]pyridin-5-yloxy)-benzamide]",5.5,1.54
"Cc1cc(C(F)(F)F)ccc1C1=C(CN2CCN(c3ccc(C(=O)NS(=O)(=O)c4ccc(NC[C@@H]5CCCO5)c([N+](=O)[O-])c4)c(Oc4cnc5[nH]ccc5c4)c3)CC2)CCC(C)(C)C1 [Compound 11-1, (S)-4-(4-{[2-(2-methyl-4-trifluoromethylphenyl)-4,4-dimethylcyclohex-1-enyl]methyl}-piperazin-1-yl)-N-({3-nitro-4-[((tetrahydrofuran-2-yl)methyl)amino]phenyl}sulfonyl)-2-(1H-pyrrolo[2,3-b]pyridin-5-yloxy)-benzamide]",,1.79
"CC(=O)N1CCO[C@H](CNc2ccc(S(=O)(=O)NC(=O)c3ccc(N4CCN(CC5=C(c6ccc(C(F)(F)F)cc6C)CC(C)(C)CC5)CC4)cc3Oc3cnc4[nH]ccc4c3)cc2[N+](=O)[O-])C1 [Compound 19-1, (R)-4-(4-{[2-(2-methyl-4-trifluoromethylphenyl)-4,4-dimethylcyclohex-1-enyl]methyl}-piperazin-1-yl)-N-({3-nitro-4-[((4-acetylmorpholin-2-yl)methyl)amino]phenyl}sulfonyl)-2-(1H-pyrrolo[2,3-b]pyridin-5-yloxy)-benzamide]",3.4,0.97
